# Test results: paper PMC11643690, “Chelating Properties of N6O-Donors Toward Cu(II) Ions: Speciation in Aqueous Environments and Catalytic Activity of the Dinuclear Complexes” (Molecules, 2024)
# What was measured:
# [1] = UV–Vis titration of HL-CH3 with Fe(ClO4)2, binding constant; conditions: Fe(II); 0.1 mM ligand, 5% v/v MeOH/BBS 50 mM, pH 7.4
# Experimental: (§1) To evaluate the selectivity of these ligands towards copper, the same titrations were performed with different metal salts: Fe(ClO4)2, Mn(ClO4)2, and Zn(ClO4)2, monitoring the methyl-substituted ligand (Figures S39–S41). These metal ions were chosen because they are also divalent and common in biological matrixes.
# (§2) For the determination of the binding constant between metals and ligands, a solution of the latter was titrated with 0.2 eq of metal for each addition. The titrating solutions were 10 mM and 100 μM for Cu(ClO4)2 versus 0.1 mM and 1 μM for the ligands in 5% v/v MeOH/BBS (50 mM, pH 7.4), respectively. […] The absorbance variation was monitored from 200 nm to 800 nm at 25 °C. […]
# (§3) UV-vis spectra of ligands and complexes were recorded in a quartz cuvette, with 1 cm of optical path. […]
# (§4) The titrating solutions were 10 mM and 100 μM for Cu(ClO4)2 versus 0.1 mM and 1 μM for the ligands in 5% v/v MeOH/BBS (50 mM, pH 7.4), respectively. […] The absorbance variation was monitored from 200 nm to 800 nm with a Varian Cary 50 instrument, thermostated at 25 °C.
# (§5) The binding constants were then determined by nonlinear regression analysis of the plot “ΔAbs/b vs Cu(II) concentration” (Equation 7 ), according to K. Connors, The Measurement of Molecular Complex Stability, Madison, Wisconsin, Wiley, 1987[5]. […]
# (§6) ΔA: absorbance at a certain wavelength. […]
# [2] = UV–Vis titration of HL-CH3 with Zn(ClO4)2, binding constant; conditions: Zn(II); 0.1 mM ligand, 5% v/v MeOH/BBS 50 mM, pH 7.4
# Experimental: as §1, §2, §3, §4, §5, §6
# [3] = ESI-MS(+) competition with equimolar Cu, Fe, Mn, Zn perchlorates; type: binding; conditions: half an equivalent of ligand
# Experimental: Equimolar solutions of Cu(ClO4)2, Fe(ClO4)2, Mn(ClO4)2, and Zn(ClO4)2 were prepared, and half an equivalent of HL-CH3 was added. The composition of the solution was then analyzed with ESI-MS to determine which species were formed. […] The most intense signal is the cluster at m/z = 855, referring to the species [Cu2(L-CH3)(ClO4)2]^+. Other signals are at m/z = 801 for [Cu2(L-CH3)(COO)(ClO4)]^+ and m/z = 351 for [Cu2(L-CH3)(ClO4)]^2+.
# β-amyloid 1–40 peptide = target: T1, β-amyloid 1–40 peptide (Homo sapiens, UniProt P05067); experiment: Thioflavin T (ThT) fluorescence aggregation assay; type: biochemical; conditions: [ThT] = 10 μM; [β-amyloid 1–40] = 10 μM; 10 μM test substance; PBS pH 7.4, 37 °C
# T1 construct: β-Amyloid (1–40) was purchased from GenScript; purchased GenScript (Leiden, the Netherlands)
# T1 sequence (P05067 672-711 limits assumed): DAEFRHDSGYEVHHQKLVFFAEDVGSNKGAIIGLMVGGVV
# Experimental: To evaluate the anti-aggregation ability of the complexes, the β-amyloid 1–40 peptide was selected due to its higher solubility and slower aggregation rate compared to the full-length Aβ 1–42. Aggregation experiments were conducted using the Thioflavin T (ThT) fluorescence assay, which is a standard method to monitor amyloid aggregation. ThT binds specifically to amyloid fibrils, causing an increase in fluorescence intensity. If a complex inhibits peptide aggregation, the observed fluorescence increase will be lower compared to the reference, indicating inhibition.
# In this experiment, the amyloid peptide was first dissolved in 1,1,1,3,3,3-hexafluoro-2-propanol (HFIP) to facilitate its unfolding. A 0.2 mM solution of the peptide was then prepared in 10 mM PBS (containing 100 mM NaCl, pH 7.4). To this solution, equimolar amounts of ThT (prepared in the same buffer) and the complex (dissolved in methanol) were added.
# Aggregation test: ThT method
# Amyloid peptides Aβ1-40 were used for this analysis. […]
# • For the measurement, fluorescence spectra were recorded with a plate reader, using a Tecan […]
# The fluorescence of sample solutions was monitored at 37° C over a period of about 30 hours, acquiring values every 20 minutes. The fluorescence variation of ThT was compared in the presence/ absence of amyloid/ ligands/ complexes.
structure (smiles),measurement,setting,value
"Cc1cc(CN(Cc2ccccn2)Cc2ccccn2)c(O)c(CN(Cc2ccccn2)Cc2ccccn2)c1 [HL-CH3, 2,6-bis[(bis(2-pyridylmethyl)amino)methyl]-4-methylphenol]",Kbind,[1],1.09 × 10^8 M^−2
same,log(Kbind),[1],8.03
same,Kbind,[2],2.49 × 10^8 M^−2
same,log(Kbind),[2],8.39
same,species formed in ESI-MS(+) spectrum,[3],only ascribable to the copper complex
same,inhibition of Aβ 1–40 aggregation (ThT fluorescence),β-amyloid 1–40 peptide,moderate inhibition
